Source: patent publication US12453708B2, “Aminonaphthoquinone compounds for treatment and/or prevention of fibrosis diseases” (CALGENT BIOTECHNOLOGY CO., LTD., priority 2015, dated 2025)

Test system: ET-1-induced CTGF expression in WI-38 cells
Experiment: ET-1-induced CTGF expression in WI-38 cells (Western blot)
Format: cell-based, human
Settings: WI-38 lung fibroblasts, 0.3, 1, 3 or 10 μM for 30 min before and during 2 h ET-1 (10 nM)
Protocol: FIGS. 2 (A) and (B) show the effect of L056 on ET-1-induced CTGF expression in WI-38 cells. WI-38 lung fibroblasts were incubated with different concentrations of L056 (0.3, 1, 3 or 10 μM) for 30 min before and during incubation for 2 h with ET-1 (10 nM). […] (A), Western blot plot; (B), Quantitative assay of Western blot. WI-38 cells, a normal human embryonic lung fibroblast cell line, were obtained from American Type Culture Collection (Manassas, VA). Cells were grown in MEM nutrient mixture, containing 10% FCS, 2 mM L-glutamine, 0.1 mM NEAA, 1 mM sodium pyruvate, 50 U/ml penicillin G, and 100 µg/ml streptomycin, in a humidified 37° C. incubator with 5% CO2 Cells were used between passages 18 and 30 for all experiments. After reaching confluence, cells were seeded onto 6-cm dishes for immunoblotting. Western blot analyses were performed as described previously (Chen B C, Chang Y S, Kang J C, Hsu M J, Sheu J R, Chen T L, et al. Peptidoglycan induces nuclear factor-kappaB activation and cyclooxygenase-2 expression via Ras, Raf-1, and ERK in RAW 264.7 macrophages. J Biol Chem 2004; 279:20889-97). Briefly, WI-38 lung fibroblasts were cultured in 6-cm dishes. […] The immunoreactivity was detected using enhanced chemiluminescence (ECL) following the manufacturer's instructions. Quantitative data were obtained using a computing densitometer with scientific imaging systems (Kodak, Rochester, NY). […]

## O=C(Nc1ccncc1)c1ccc(CNC2=C(Cl)C(=O)c3ccccc3C2=O)cc1 [Example L056, 4-(((3-chloro-1,4-dioxo-1,4-dihydronaphthalen-2-yl)amino)methyl)-N-(pyridin-4-yl)benzamide]
  ET-1-induced CTGF production/expression: significantly inhibited
Listed as MPTOL0560
  ET-1-induced CTGF production/expression: inhibited
